Assay results taken from patent KR20170031305A, “방사성 요오드 표지 아자이드 추적체, 이의 제조방법 및 이를 유효성분으로 포함하는 방사성 요오드 표지 또는 의료 진단용 조성물” (한국원자력연구원, priority 2015, dated 2017).

Assays:
[1] = Stability in normal mouse serum at 37 °C, radio-TLC (Experimental Example 2); format: in vitro ADME
[2] = Biodistribution in ICR mice after intravenous injection, gamma counter (Experimental Example 3); format: in vivo; conditions: ICR male mice, i.v., 1 μCi/100 μL per mouse

decrease of radiochemical purity in mouse serum ([1]; after 5 h): 거의 감소하지 않고
remaining at 5 h ([1]; after 5 h, read-out: radiochemical purity in mouse serum): ≥ 95%
remaining at 24 h ([1]; after 24 h, read-out: radiochemical purity in mouse serum): ≥ 90%
time to absorption and accumulation in liver and kidney [2]: ≤ 15 min
tissue uptake at 1 h ([2]; liver and kidney, iv, 1 uCi/animal, within 1 h, read-out: concentration (liver and kidney)): ≤ 20 %ID/g
tissue uptake at 2 h ([2]; liver and kidney, iv, 1 uCi/animal, within 2 h, read-out: concentration (liver and kidney)): ≤ 10 %ID/g
accumulation in liver and kidney ([2]; within 15 min): 높은 농도로 집적
excretion from the body ([2]; within 2 h): ≥ 90%
SMILES: [N-]=[N+]=NCCOCCOCCOCCNC(=O)c1ccc([125I])cc1 [실시예 1, 125I이 표지된 N-(2-(2-(2-(2-아지도에톡시)에톡시)에톡시)에틸)-4-아이오도벤즈아마이드]
